From US11000033B2, “Ketone or oxime compound, and herbicide” (NISSAN CHEMICAL CORPORATION, priority 2014, dated 2021)

Legend:
Format in all cases: in vivo
Galium spurium = assay: Test Example 5: herbicidal effect by foliage application, plastic box (symbol Q); conditions: 320 g/ha, 3 weeks after application
Method in brief: (§1)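 Herbicide, formulated as an emulsion and diluted in water, is sprayed onto the aerial parts of 14-day seedlings. These were grown at 25° C. to 30° C. in sterilized diluvial soil; effects are graded after 3 weeks.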

Leptochloa chinensis = assay: Test Example 3: herbicidal effect by foliage application, Wagner pot (symbol D); conditions: application herbicide amount 320 g/ha; for D (Leptochloa chinensis) herbicidal effect grade: Table 24
Method in brief: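 The compound, formulated as an emulsion and diluted with water to a predetermined rate, is applied uniformly to leaves of two-week-old seedlings growing in submerged alluvial soil at 25–30 °C. Rice is included. Each plant is assessed 3 weeks later using defined criteria.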

wheat = assay: Test Example 5: effect on crop by foliage application, plastic box (symbol e); conditions: 320 g/ha, 3 weeks after application
Method in brief: (§2)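 Plants were raised from seed in a greenhouse (25° C. to 30° C.) after sowing in a plastic box of sterilized diluvial soil.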

Monochoria vaginalis = assay: Test Example 1: herbicidal activity, application before weed generation in submerged conditions (symbol C); conditions: application herbicide amount 320 g/ha
Method in brief: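 Application before weed emergence: an aqueous dilution of the emulsion formulation was poured onto the surface of 4 cm-deep floodwater on the day of sowing. Effect was judged after 3 weeks (greenhouse, 25–30 °C).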

rapeseed = assay: Test Example 4: effect on crop by soil treatment (symbol g); conditions: for g: rapeseed, effect grade on crop: 320 g/ha
Method in brief: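 Soil-treatment setup: crop and weed seeds were spot-sown into sterilized diluvial soil, then buried beneath approximately 1.5 cm of it, and the boxes were housed in a 25–30° C. greenhouse.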

[1] = test system: directly sowed rice plant; assay: Test Example 3: effect on crop by foliage application, Wagner pot (symbol b); conditions: application herbicide amount 320 g/ha; for b (directly sowed rice plant) effect on crop grade: Table 24
Method in brief: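 Greenhouse culture at 25–30 °C of seeded rice, Cyperus difformis, Leptochloa chinensis and Echinochloa crus-galli var. crus-galli, in alluvial soil held under 0.1–0.5 cm of water in a Wagner pot.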

beet = assay: Test Example 5: effect on crop by foliage application, plastic box (symbol f); conditions: 320 g/ha, 3 weeks after application
Method in brief: as §2

Abutilon theophrasti = assay: Test Example 4: herbicidal effect by soil treatment (symbol M)
Method in brief: (§3)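 Seeds were sown in sterilized diluvial soil, covered with about 1.5 cm of soil, and the soil surface was sprayed with a water-diluted emulsion of the compound at a predetermined rate. Plants grew in a greenhouse at 25° C. to 30° C.; effects were scored visually 3 weeks after application.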

Amaranthus retroflexus = assay: Test Example 4: herbicidal effect by soil treatment (symbol N)
Method in brief: as §3

Apera spica-venti = assay: Test Example 5: herbicidal effect by foliage application, plastic box (symbol L); conditions: 320 g/ha, 3 weeks after application
Method in brief: as §1

Digitaria ciliaris = assay: Test Example 4: herbicidal effect by soil treatment (symbol F)
Method in brief: as §3

transplanted rice plant = assay: Test Example 1: effect on crop, application before weed generation in submerged conditions (symbol a); conditions: application herbicide amount 320 g/ha
Method in brief: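 Rice at 2.5 leaf stage transplanted into submerged soil (4 cm depth) sown with three weed species; herbicide applied before weed emergence.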

corn = assay: Test Example 5: effect on crop by foliage application, plastic box (symbol c); conditions: 320 g/ha, 3 weeks after application
Method in brief: as §2

[2] = application herbicide amount 320 g/ha

Structure (SMILES) | Q: Galium spurium, herbicidal effect grade (Galium spurium) | D (Leptochloa chinensis) herbicidal effect grade (Leptochloa chinensis) | e: wheat, effect on crop grade (wheat) | C (Monochoria vaginalis) herbicidal effect grade (Monochoria vaginalis) | b (directly sowed rice plant) effect on crop grade [1] | f: beet, effect on crop grade (beet) | L: Apera spica-venti, herbicidal effect grade (Apera spica-venti) | a (transplanted rice plant) effect on crop grade (transplanted rice plant) | c: corn, effect on crop grade (corn) | Q: Galium spurium, herbicidal effect (criteria 0-5) (Galium spurium) | herbicidal effect on D (Leptochloa chinensis), grade 0-5 (Leptochloa chinensis) | e: wheat, effect on crop (criteria 0-5) (wheat) | Herbicidal effect grade, C: Monochoria vaginalis (Monochoria vaginalis) | g: rapeseed, effect grade on crop (rapeseed) | effect on crop b (directly sowed rice plant), grade 0-5 [1] | f: beet, effect on crop (criteria 0-5) (beet) | M: Abutilon theophrasti, herbicidal effect grade (Abutilon theophrasti; 320 g/ha) | N: Amaranthus retroflexus, herbicidal effect grade (Amaranthus retroflexus; 320 g/ha) | L: Apera spica-venti, herbicidal effect (criteria 0-5) (Apera spica-venti) | Effect grade on crop, a: transplanted rice plant (transplanted rice plant) | other results
CC(CC1CC(OC(=O)COc2ccccc2)=C(c2c(C)cc(-c3ccc(Cl)cc3)cc2C)C1=O)=NOCC(F)(F)F (mixture of isomers) [9-027] | 3 (Herbicidal ratio of 40% or higher and lower than 70%) | 5 (Herbicidal ratio of 90% or more (almost completely withered)) | 4 (Herbicidal ratio of 70% or higher and lower than 90%) | 1 (Herbicidal ratio of 5% or higher and lower than 20%) | 3 (Herbicidal ratio of 40% or higher and lower than 70%) | 0 (Herbicidal ratio of 5% or lower (almost no effect)) | 5 (Herbicidal ratio of 90% or more (almost completely withered)) | 5 (Herbicidal ratio of 90% or more (almost completely withered)) | 5 (Herbicidal ratio of 90% or more (almost completely withered)) | – | – | – | – | – | – | – | – | – | – | – | Effect on crop grade, g: rapeseed (rapeseed; [2]): 1 (Herbicidal ratio of 5% or higher and lower than 20%); Herbicidal effect grade, M: Abutilon theophrasti (Abutilon theophrasti; [2]): 0 (Herbicidal ratio of 5% or lower (almost no effect)); Herbicidal effect grade, N: Amaranthus retroflexus (Amaranthus retroflexus; [2]): 3 (Herbicidal ratio of 40% or higher and lower than 70%); Herbicidal effect grade, F: Digitaria ciliaris (Digitaria ciliaris; [2]): 5 (Herbicidal ratio of 90% or more (almost completely withered))
CON=C(CC1CC(O)=C(c2c(C)cc(C)cc2OC)C1=O)C1CC1 (mixture of isomers) [13-002] | 4 (Herbicidal ratio of 70% or higher and lower than 90%) | 5 (Herbicidal ratio of 90% or more (almost completely withered)) | 5 (Herbicidal ratio of 90% or more (almost completely withered)) | 0 (Herbicidal ratio of 5% or lower (almost no effect)) | 5 (Herbicidal ratio of 90% or more (almost completely withered)) | 3 (Herbicidal ratio of 40% or higher and lower than 70%) | 5 (Herbicidal ratio of 90% or more (almost completely withered)) | 5 (Herbicidal ratio of 90% or more (almost completely withered)) | 5 (Herbicidal ratio of 90% or more (almost completely withered)) | – | – | – | – | – | – | – | – | – | – | – | g: rapeseed, effect on crop grade (rapeseed; [2]): 1 (Herbicidal ratio of 5% or higher and lower than 20%); M: Abutilon theophrasti, herbicidal effect grade (Abutilon theophrasti; [2]): 0 (Herbicidal ratio of 5% or lower (almost no effect)); N: Amaranthus retroflexus, herbicidal effect grade (Amaranthus retroflexus; [2]): 0 (Herbicidal ratio of 5% or lower (almost no effect)); F: Digitaria ciliaris, herbicidal effect grade (Digitaria ciliaris; [2]): 5 (Herbicidal ratio of 90% or more (almost completely withered))
CC(CC1CC(O)=C(c2c(C)cc(C)cc2C)C1=O)=NOCC1OCCO1 (centres unmarked) [1-111] | – | – | – | – | – | – | – | – | – | 2 (Herbicidal ratio of 20% or higher and lower than 40%) | 5 (Herbicidal ratio of 90% or more (almost completely withered)) | 5 (Herbicidal ratio of 90% or more (almost completely withered)) | 1 (Herbicidal ratio of 5% or higher and lower than 20%) | 4 (Herbicidal ratio of 70% or higher and lower than 90%) | 5 (Herbicidal ratio of 90% or more (almost completely withered)) | 0 (Herbicidal ratio of 5% or lower (almost no effect)) | 4 (Herbicidal ratio of 70% or higher and lower than 90%) | 0 (Herbicidal ratio of 5% or lower (almost no effect)) | 5 (Herbicidal ratio of 90% or more (almost completely withered)) | 5 (Herbicidal ratio of 90% or more (almost completely withered)) | F: Digitaria ciliaris, herbicidal effect grade (Digitaria ciliaris; 320 g/ha): 5 (Herbicidal ratio of 90% or more (almost completely withered)); c: corn, effect on crop (criteria 0-5) (corn): 5 (Herbicidal ratio of 90% or more (almost completely withered))
COc1ccc(CON=C(C)CC2CC(O)=C(c3c(C)cc(C)cc3C)C2=O)cc1 (centres unmarked) [1-112] | – | – | – | – | – | – | – | – | – | 3 (Herbicidal ratio of 40% or higher and lower than 70%) | 5 (Herbicidal ratio of 90% or more (almost completely withered)) | 5 (Herbicidal ratio of 90% or more (almost completely withered)) | 5 (Herbicidal ratio of 90% or more (almost completely withered)) | 0 (Herbicidal ratio of 5% or lower (almost no effect)) | 5 (Herbicidal ratio of 90% or more (almost completely withered)) | 0 (Herbicidal ratio of 5% or lower (almost no effect)) | 0 (Herbicidal ratio of 5% or lower (almost no effect)) | 0 (Herbicidal ratio of 5% or lower (almost no effect)) | 5 (Herbicidal ratio of 90% or more (almost completely withered)) | 5 (Herbicidal ratio of 90% or more (almost completely withered)) | F: Digitaria ciliaris, herbicidal effect grade (Digitaria ciliaris; 320 g/ha): 4 (Herbicidal ratio of 70% or higher and lower than 90%); c: corn, effect on crop (criteria 0-5) (corn): 4 (Herbicidal ratio of 70% or higher and lower than 90%)
C=CCOC1=C(c2c(C)cc(C)cc2C)C(=O)C(CC(C)=NOC)C1 (centres unmarked) [1-007] | 0 (Herbicidal ratio of 5% or lower (almost no effect)) | – | 0 (Herbicidal ratio of 5% or lower (almost no effect)) | – | – | 0 (Herbicidal ratio of 5% or lower (almost no effect)) | 1 (Herbicidal ratio of 5% or higher and lower than 20%) | – | 0 (Herbicidal ratio of 5% or lower (almost no effect)) | – | 5 (Herbicidal ratio of 90% or more (almost completely withered)) | – | 0 (Herbicidal ratio of 5% or lower (almost no effect)) | – | 0 (Herbicidal ratio of 5% or lower (almost no effect)) | – | – | – | – | 0 (Herbicidal ratio of 5% or lower (almost no effect)) | g (rapeseed) effect on crop grade (rapeseed; [2]): 0 (Herbicidal ratio of 5% or lower (almost no effect)); M (Abutilon theophrasti) herbicidal effect grade (Abutilon theophrasti; [2]): 0 (Herbicidal ratio of 5% or lower (almost no effect)); N (Amaranthus retroflexus) herbicidal effect grade (Amaranthus retroflexus; [2]): 0 (Herbicidal ratio of 5% or lower (almost no effect)); F (Digitaria ciliaris) herbicidal effect grade (Digitaria ciliaris; [2]): 0 (Herbicidal ratio of 5% or lower (almost no effect))
